What is called IC50 is the point on the concentration scale where inhibition reaches its midpoint.

This note sets out measurements from patent US9403830B2, “Inhibitors of leukotriene production” (Boehringer Ingelheim International GmbH, priority 2012, dated 2016).

The structures appear in SMILES notation.

The test system of experiment [1] is LTB4 synthesis in human whole blood. Kind of experiment: human whole blood (HWB) assay, inhibition of LTB4 production. Type of experiment: cell-based. Conditions: heparinized human whole blood, calcimycin 20 μM stimulation, plasma LTB4. Summed up: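 Plasma LTB4, quantified by HTRF immunoassay, is the read-out after calcimycin challenge (20 μM final, 30 min, 37 °C) of heparinized whole blood that had been pretreated with compound for 15 min at 37 °C; values given as IC50.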

The target of experiment [2] is T1, human LTA4 hydrolase (Homo sapiens, UniProt P09960).
T1 sequence (P09960 1-611): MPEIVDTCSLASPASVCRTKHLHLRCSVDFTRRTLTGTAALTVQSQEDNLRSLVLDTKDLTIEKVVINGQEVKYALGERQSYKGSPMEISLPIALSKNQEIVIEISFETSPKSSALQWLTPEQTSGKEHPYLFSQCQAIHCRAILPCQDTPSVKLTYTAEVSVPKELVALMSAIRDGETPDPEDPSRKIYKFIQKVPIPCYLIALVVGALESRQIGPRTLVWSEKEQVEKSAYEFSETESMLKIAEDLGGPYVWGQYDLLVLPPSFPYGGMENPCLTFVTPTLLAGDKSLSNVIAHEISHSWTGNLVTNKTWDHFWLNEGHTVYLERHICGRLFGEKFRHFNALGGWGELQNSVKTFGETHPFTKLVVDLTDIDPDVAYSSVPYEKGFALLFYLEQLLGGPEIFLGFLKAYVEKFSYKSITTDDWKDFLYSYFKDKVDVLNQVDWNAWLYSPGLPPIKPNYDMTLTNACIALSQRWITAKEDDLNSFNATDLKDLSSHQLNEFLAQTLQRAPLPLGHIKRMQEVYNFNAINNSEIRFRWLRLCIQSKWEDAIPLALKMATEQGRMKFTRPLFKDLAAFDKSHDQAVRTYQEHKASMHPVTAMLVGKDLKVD
The experiment in a line: LTA4H Enzyme assay (peptidase, Arg-AMC cleavage). Type of experiment: biochemical. Conditions: LTA4H enzyme 1 nM, Arg-AMC substrate 50 μM, room temperature 1 h, fluorescence 380/460 nm. In short, it runs like this:
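Human LTA4H (1 nM final) incubated with compound and Arg-AMC (50 μM final) in 50 mM Tris-HCl pH 7.5, 100 mM KCl, 0.5% BSA, 1 h at room temperature. Product read as AMC fluorescence (ex 380/em 460 nm); IC50 reported.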

Take `CC(=O)NC[C@@H]1[C@H]2CN(Cc3ccc4cc(Oc5ccc(-c6ccn[nH]6)cn5)ccc4n3)C[C@@H]12` [Example 41, N-((1α,5α,6α)-3-{6-[5-(2H-Pyrazol-3-yl)-pyridin-2-yloxy]-quinolin-2-ylmethyl}-3-aza-bicyclo[3.1.0]hex-6-ylmethyl)-acetamide]: the IC50 worked out at 0.32 µM in experiment [1] and 0.00099 µM in experiment [2].

Turning to `OCCCn1ncc2cc(Oc3ccc(-c4ccn[nH]4)cc3)ccc21` [Example 118, 3-{5-[4-(2H-Pyrazol-3-yl)-phenoxy]-indazol-1-yl}-propan-1-ol], the half-maximal inhibitory concentration (IC50) came to 0.76 µM in experiment [1] and 0.007 µM in experiment [2].

As to `NC(=O)C1CCN(CC2CCc3ccc(Oc4ccc(-c5ccn[nH]5)cn4)cc3O2)CC1` (stereo not drawn) [Example 9, 1-{7-[5-(2H-Pyrazol-3-yl)-pyridin-2-yloxy]-chroman-2-ylmethyl}-piperidine-4-carboxylic acid amide], the figures for the half-inhibitory concentration (IC50) in experiment [1] and in experiment [2] were 1.3 µM and 0.0042 µM, respectively.

As for `CC(=O)N1CCN(CCn2cc3cc(Oc4ccc(-c5ccn[nH]5)cc4)ccc3n2)CC1` [Example 93, 1-[4-(2-{5-[4-(2H-Pyrazol-3-yl)-phenoxy]-indazol-2-yl}-ethyl)-piperazin-1-yl]-ethanone], the IC50 in experiment [1] is 0.15 µM; in experiment [2], 0.00058 µM.

`CN(Cc1nc2cc(Oc3ccc(-c4ccn[nH]4)cc3)ccc2[nH]1)CC1CCCOC1` (stereo not drawn) [Example 92, Methyl-{5-[4-(2H-pyrazol-3-yl)-phenoxy]-1H-benzoimidazol-2-ylmethyl}-(tetrahydro-pyran-3-ylmethyl)-amine]: the concentration for half-maximal inhibition (IC50) was determined as 0.14 µM in experiment [1] and 0.00011 µM in experiment [2].

For `c1cc(-c2ccc(Oc3ccc4nc(CN5C[C@@H]6C[C@H]5CO6)ccc4c3)nc2)[nH]n1` [Example 178, 2-[(1S,4S)-1-(2-Oxa-5-aza-bicyclo[2.2.1]hept-5-yl)methyl]-6-[5-(2H-pyrazol-3-yl)-pyridin-2-yloxy]-quinoline], the results for the IC50 in experiment [1] and in experiment [2] were 0.15 µM and 0.00074 µM, respectively.

With `CCCN(CCOC)Cc1nc2cc(Oc3ccc(-c4ccn[nH]4)cc3)ccc2[nH]1` [Example 184, (2-Methoxy-ethyl)-propyl-{5-[4-(2H-pyrazol-3-yl)-phenoxy]-1H-benzoimidazol-2-ylmethyl}-amine], the IC50 stood at 0.15 µM in experiment [1] and 0.0002 µM in experiment [2].

For `CC(=O)N[C@@H]1C[C@H]2CC[C@@H](C1)N2Cc1ccc2cc(Oc3ccc(-c4cc[nH]n4)cn3)ccc2n1` [Example 239, N-((exo)-8-{6-[5-(1H-Pyrazol-3-yl)-pyridin-2-yloxy]-quinolin-2-ylmethyl}-8-aza-bicyclo[3.2.1]oct-3-yl)-acetamide], the IC50 in experiment [1] came out at 0.26 µM; in experiment [2] it was 0.00043 µM.

For `c1cc(-c2ccc(Oc3ccn4cc(CN5CCOCC5)nc4c3)cc2)[nH]n1` [Example 257, 2-Morpholin-4-ylmethyl-7-[4-(2H-pyrazol-3-yl)-phenoxy]-imidazo[1,2-a]pyridine], the half-maximal inhibitory concentration (IC50) in experiment [1] came to 0.65 µM; in experiment [2] it was 0.0025 µM.

Turning to `O=C(CO)N1CC2CCC(C1)N2Cc1ccc2cc(Oc3ccc(-c4ccn[nH]4)cn3)ccc2n1` [Example 132, 2-Hydroxy-1-(8-{6-[5-(2H-pyrazol-3-yl)-pyridin-2-yloxy]-quinolin-2-ylmethyl}-3,8-diaza-bicyclo[3.2.1]oct-3-yl)-ethanone], the IC50 stood at 0.14 µM in experiment [1] and 0.00028 µM in experiment [2].

With `CC(=O)N1CCC(N(C)Cc2ccc3cc(Oc4ccc(-c5ccn[nH]5)cn4)ccc3n2)CC1` [Example 110, 1-[4-(Methyl-{6-[5-(2H-pyrazol-3-yl)-pyridin-2-yloxy]-quinolin-2-ylmethyl}-amino)-piperidin-1-yl]-ethanone], the values for the IC50 in experiment [1] and in experiment [2] were 0.24 µM and 0.0007 µM, respectively.

Turning to `CN(Cc1nc2cc(Oc3ccc(-c4ccn[nH]4)cc3)ccc2[nH]1)C(=O)C1CC1` [Example 233, Cyclopropanecarboxylic acid methyl-{5-[4-(2H-pyrazol-3-yl)-phenoxy]-1H-benzoimidazol-2-ylmethyl}-amide], the IC50 in experiment [1] is 0.17 µM; in experiment [2], 0.00024 µM.

Turning to `c1cc(-c2ccc(Oc3ccc4nc(CN5CCC5)ccc4c3)nc2)[nH]n1` [Example 21, 2-Azetidin-1-ylmethyl-6-[5-(2H-pyrazol-3-yl)-pyridin-2-yloxy]-quinoline], the IC50 is 0.086 µM in experiment [1] and 0.00022 µM in experiment [2].

In the case of `c1cc(-c2ccc(Oc3ccc4c(cnn4CCN4CCOCC4)c3)nc2)[nH]n1` [Example 111, 1-(2-Morpholin-4-yl-ethyl)-5-[5-(2H-pyrazol-3-yl)-pyridin-2-yloxy]-1H-indazole], the IC50 was determined as 0.28 µM in experiment [1] and 0.002 µM in experiment [2].

For `c1cc(-c2ccc(Oc3ccc4[nH]c(CNC5CCCOC5)nc4c3)cc2)[nH]n1` (stereo not drawn) [Example 181, {5-[4-(2H-Pyrazol-3-yl)-phenoxy]-1H-benzoimidazol-2-ylmethyl}-(tetrahydro-pyran-3-yl)-amine], the half-inhibitory concentration (IC50) is 0.15 µM in experiment [1] and 0.00021 µM in experiment [2].

With `COC[C@H](C)NCc1nc2cc(Oc3ccc(-c4ccn[nH]4)cc3)ccc2[nH]1` [Example 189, ((S)-2-Methoxy-1-methyl-ethyl)-{5-[4-(2H-pyrazol-3-yl)-phenoxy]-1H-benzoimidazol-2-ylmethyl}-amine], the IC50 in experiment [1] was 0.16 µM; in experiment [2], 0.00023 µM.

For the molecule `O=C1CCCN1C1CCN(CC2Cc3ccc(Oc4ccc(-c5ccn[nH]5)cn4)cc3O2)CC1` (stereo not drawn) [Example 129, 1-(1-{6-[5-(2H-Pyrazol-3-yl)-pyridin-2-yloxy]-2,3-dihydro-benzofuran-2-ylmethyl}-piperidin-4-yl)-pyrrolidin-2-one], the IC50 in experiment [1] was 0.19 µM; in experiment [2], 0.00092 µM.

For `c1cncc(Cc2nc3cc(Oc4ccc(-c5ccn[nH]5)cc4)ccc3[nH]2)c1` [Example 73, 5-[4-(2H-Pyrazol-3-yl)-phenoxy]-2-pyridin-3-ylmethyl-1H-benzoimidazole], the concentration for half-maximal inhibition (IC50) turned out to be 0.33 µM in experiment [1] and 0.00036 µM in experiment [2].

Regarding `O=C1CCC2CN(Cc3ccc4cc(Oc5ccc(-c6ccn[nH]6)cn5)ccc4n3)CCN12` (stereo not drawn) [Example 18, 2-{6-[5-(2H-pyrazol-3-yl)-pyridin-2-yloxy]-quinolin-2-ylmethyl}-hexahydro-pyrrolo[1,2-a]pyrazin-6-one], the IC50 is 0.58 µM in experiment [1] and 0.002 µM in experiment [2].

As for `c1cc(-c2ccc(Oc3ccc4[nH]c(CN5CCC(CN6CCOCC6)CC5)nc4c3)cc2)[nH]n1` [Example 225, 2-(4-Morpholin-4-ylmethyl-piperidin-1-ylmethyl)-5-[4-(2H-pyrazol-3-yl)-phenoxy]-1H-benzoimidazole], the 50% inhibitory concentration (IC50) in experiment [1] came to 0.13 µM; in experiment [2], 0.00013 µM.

For the molecule `CCN(CCOC)Cc1nc2cc(Oc3ccc(-c4ccn[nH]4)cc3)ccc2[nH]1` [Example 155, Ethyl-(2-methoxy-ethyl)-{5-[4-(2H-pyrazol-3-yl)-phenoxy]-1H-benzoimidazol-2-ylmethyl}-amine], the values for the 50% inhibitory concentration (IC50) in experiment [1] and in experiment [2] were 0.095 µM and 0.00018 µM, respectively.

For the molecule `COCC1CCCCN1Cc1nc2cc(Oc3ccc(-c4ccn[nH]4)cc3)ccc2[nH]1` (stereo not drawn) [Example 168, 2-(2-Methoxymethyl-piperidin-1-ylmethyl)-5-[4-(2H-pyrazol-3-yl)-phenoxy]-1H-benzoimidazole], the IC50 was 0.12 µM in experiment [1] and 0.00013 µM in experiment [2].

For `O=C(CO)N1C[C@@H]2C[C@H]1CN2Cc1ccc2cc(Oc3ccc(-c4ccn[nH]4)cn3)ccc2n1` [Example 139, 2-Hydroxy-1-((1S,4S)-5-{6-[5-(2H-pyrazol-3-yl)-pyridin-2-yloxy]-quinolin-2-ylmethyl}-2,5-diaza-bicyclo[2.2.1]hept-2-yl)-ethanone], the 50% inhibitory concentration (IC50) in experiment [1] came to 0.2 µM; in experiment [2], 0.00039 µM.

For `c1cc(-c2ccc(Oc3ccc4ncc(CN5CCOCC5)cc4c3)cc2)[nH]n1` [Example 249, 3-Morpholin-4-ylmethyl-6-[4-(2H-pyrazol-3-yl)-phenoxy]-quinoline], the 50% inhibitory concentration (IC50) in experiment [1] was 0.2 µM; in experiment [2], 0.00037 µM.

Consider `CN(C)C(=O)C1CCN(CC2Cc3ccc(Oc4ccc(-c5ccn[nH]5)cc4)cc3O2)CC1` (stereo not drawn) [Example 197, 1-{6-[4-(2H-Pyrazol-3-yl)-phenoxy]-2,3-dihydro-benzofuran-2-ylmethyl}-piperidine-4-carboxylic acid dimethylamide], for which the half-maximal inhibitory concentration (IC50) in experiment [1] was 0.18 µM; in experiment [2], 0.00046 µM.

Consider `FC(F)(F)CN1CCN(Cc2nc3cc(Oc4ccc(-c5ccn[nH]5)cc4)ccc3[nH]2)CC1` [Example 63, 5-[4-(2H-Pyrazol-3-yl)-phenoxy]-2-[4-(2,2,2-trifluoro-ethyl)-piperazin-1-ylmethyl]-1H-benzoimidazole], for which the half-inhibitory concentration (IC50) worked out at 0.15 µM in experiment [1] and 0.00011 µM in experiment [2].

Regarding `OC1CN(Cc2ccc3c(ccn3Cc3ccc(-c4ccn[nH]4)cc3)c2)C1` [Example 216, 1-{1-[4-(2H-Pyrazol-3-yl)-benzyl]-1H-indol-5-ylmethyl}-azetidin-3-ol], the values for the IC50 in experiment [1] and in experiment [2] were 0.11 µM and 0.0002 µM, respectively.
